Assay results taken from patent US9745321B2, “Fused pyrimidine compound, intermediate, preparation method therefor, and composition and application thereof” (SHANGHAI YINGLI PHARMACEUTICAL CO., LTD, priority 2013, dated 2017).

Key:
PI3Kβ = PI3Kβ (Homo sapiens (Human), UniProt P42338); assay: PI3Kβ enzyme activity inhibition IC50 evaluation assay; type: biochemical; settings: ratio PI3Kβ vs PI3Kδ
Protocol: (§1) PI3Kα, PI3Kδ, PI3Kβ and PI3Kγ Enzyme Activity Inhibition IC50 Evaluation Assay
(§2) • 1. Buffer preparation: 50 mM HEPES, pH 7.5, 3 mM MgCl2, 1 mM EGTA, 100 mM NaCl, 0.03% CHAPS. • 2. Compound was formulated in 100% DMSO in a concentration gradient, and added to a 384-well plate to a final DMSO concentration of 1%. • 3. PI3Kα, PI3Kδ, PI3Kβ and PI3Kγ enzymes were diluted to an optimum concentration with the following buffer: 50 mM HEPES, pH 7.5, 3 mM MgCl2, 1 mM EGTA, 100 mM NaCl, 0.03% CHAPS, 2 mM DTT, and transferred to a 384-well plate and incubated with the compound for a certain time. • 4. Substrate was diluted to an optimum concentration with the following buffer: 50 mM HEPES, pH 7.5, 3 mM MgCl2, 1 mM EGTA, 100 mM NaCl, 0.03% CHAPS, 2 mM DTT, 50 μM PIP2, 25 μM ATP; then added to a 384-well plate to initiate the reaction, and for PI3Kα, PI3Kβ and PI3Kγ at room temperature reacted for 1 hr, for PI3Kδ at room temperature reacted for 2 hrs. For PI3Kβ and PI3Kγ, it was still necessary to further add 10 μL ADP-Glo Detection Reagent, and then equilibrated at room temperature for 30 minutes. • 5. Read Luminescense with FlexStation, and calculate the inhibition rate as the average of two tests.

PI3Kδ = PI3Kδ (Homo sapiens (Human), UniProt O00329); assay: PI3Kδ enzyme activity inhibition IC50 evaluation assay; type: biochemical; settings: luminescence, 25 μM ATP, 50 μM PIP2, 2 hrs room temperature
Outline: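 Enzyme was preincubated with compound dilutions at 1% DMSO final in 50 mM HEPES pH 7.5, 3 mM MgCl2, 1 mM EGTA, 100 mM NaCl, 0.03% CHAPS, 2 mM DTT. Activity was read by luminescence, and inhibition rate is the mean of two tests.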

PI3Kα = PI3Kα (Homo sapiens (Human), UniProt P42336); assay: PI3Kα enzyme activity inhibition IC50 evaluation assay; type: biochemical; settings: ratio PI3Kα vs PI3Kδ
Outline: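 Enzymes were preincubated with compound (1% DMSO final) in HEPES pH 7.5 buffer with MgCl2, EGTA, NaCl, CHAPS and 2 mM DTT. Reaction started with 50 μM PIP2 and 25 μM ATP, 1 h at room temperature. Luminescence was read, with ADP-Glo detection reagent added for β and γ; inhibition is the mean of two tests.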

PI3Kγ = PI3Kγ (Homo sapiens (Human), UniProt P48736); assay: PI3Kγ enzyme activity inhibition IC50 evaluation assay; type: biochemical; settings: ratio PI3Kγ vs PI3Kδ
Protocol: as §1, §2

Raji cells = assay: Inhibition of TNF-α generation of human Raji cell induced by human IgM; type: cell-based; settings: 10 μg/ml IgM stimulation, 24 hrs, ELISA
Protocol: Screening Test for a Drug on Inhibiting TNF-α Generation of Human Raji Cell Induced by Human IgM
• 1. Raji cell lines (source of human Burkitt's lymphoma) were employed. • 2. 1×10^5/well Raji cells were plated onto a 96-well cell culture plate. • 3. Compounds to be screened were diluted to the corresponding test concentrations and added into the cell culture system 30 minutes before IgM stimulation. • 4. 10 μg/ml IgM monoclonal antibody was added into the cell culture system to stimulate the cells generating TNF-α. • 5. 24 hrs later, the amount of TNF-α generated by the cell system was measured by ELISA method. • 6.

Sequence of PI3Kδ (O00329 whole entry): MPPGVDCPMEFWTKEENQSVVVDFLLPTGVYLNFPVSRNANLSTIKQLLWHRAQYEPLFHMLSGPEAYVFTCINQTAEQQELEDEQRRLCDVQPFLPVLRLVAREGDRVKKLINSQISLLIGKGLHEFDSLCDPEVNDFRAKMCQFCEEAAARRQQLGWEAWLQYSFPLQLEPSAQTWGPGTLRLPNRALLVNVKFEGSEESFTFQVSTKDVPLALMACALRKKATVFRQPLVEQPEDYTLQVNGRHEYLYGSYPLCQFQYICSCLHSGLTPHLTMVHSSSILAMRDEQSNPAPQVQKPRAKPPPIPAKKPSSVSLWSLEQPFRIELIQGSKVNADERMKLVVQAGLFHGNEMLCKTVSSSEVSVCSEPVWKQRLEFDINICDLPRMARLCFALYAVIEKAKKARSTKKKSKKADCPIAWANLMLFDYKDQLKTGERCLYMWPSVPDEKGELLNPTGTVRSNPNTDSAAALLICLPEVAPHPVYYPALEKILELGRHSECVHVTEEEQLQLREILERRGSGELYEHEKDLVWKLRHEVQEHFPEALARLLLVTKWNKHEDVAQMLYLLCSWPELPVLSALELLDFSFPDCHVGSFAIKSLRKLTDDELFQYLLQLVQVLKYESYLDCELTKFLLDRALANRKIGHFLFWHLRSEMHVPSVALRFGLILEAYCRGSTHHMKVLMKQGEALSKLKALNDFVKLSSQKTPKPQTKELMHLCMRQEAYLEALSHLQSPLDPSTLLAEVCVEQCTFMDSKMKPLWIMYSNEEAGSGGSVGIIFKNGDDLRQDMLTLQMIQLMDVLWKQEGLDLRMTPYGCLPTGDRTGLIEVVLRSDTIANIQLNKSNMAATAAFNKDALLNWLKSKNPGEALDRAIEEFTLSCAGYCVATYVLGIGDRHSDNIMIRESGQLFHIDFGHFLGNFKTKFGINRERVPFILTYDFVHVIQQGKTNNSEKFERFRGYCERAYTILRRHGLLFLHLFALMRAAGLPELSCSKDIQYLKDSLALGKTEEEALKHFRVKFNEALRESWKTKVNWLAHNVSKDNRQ
Sequence of PI3Kδ (P27986 whole entry partner): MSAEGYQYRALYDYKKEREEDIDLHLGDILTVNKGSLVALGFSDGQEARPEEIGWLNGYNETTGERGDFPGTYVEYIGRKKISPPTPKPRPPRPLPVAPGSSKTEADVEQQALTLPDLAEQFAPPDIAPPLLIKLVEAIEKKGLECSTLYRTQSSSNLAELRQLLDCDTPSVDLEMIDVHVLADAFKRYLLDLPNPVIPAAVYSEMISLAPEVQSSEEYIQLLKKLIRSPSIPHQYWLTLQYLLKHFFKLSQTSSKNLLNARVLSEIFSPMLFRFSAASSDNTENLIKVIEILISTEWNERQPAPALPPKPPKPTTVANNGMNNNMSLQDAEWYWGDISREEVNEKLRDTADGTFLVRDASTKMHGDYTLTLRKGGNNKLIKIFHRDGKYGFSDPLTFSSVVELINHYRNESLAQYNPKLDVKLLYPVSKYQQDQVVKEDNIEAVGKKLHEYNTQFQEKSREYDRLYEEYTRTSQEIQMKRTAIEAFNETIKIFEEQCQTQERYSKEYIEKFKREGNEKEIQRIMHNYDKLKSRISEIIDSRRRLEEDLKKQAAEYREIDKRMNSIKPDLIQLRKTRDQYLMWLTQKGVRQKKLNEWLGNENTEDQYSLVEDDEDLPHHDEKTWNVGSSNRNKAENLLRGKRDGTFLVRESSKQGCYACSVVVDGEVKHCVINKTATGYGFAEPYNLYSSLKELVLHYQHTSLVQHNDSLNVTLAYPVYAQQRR
Sequence of PI3Kγ (P48736 whole entry): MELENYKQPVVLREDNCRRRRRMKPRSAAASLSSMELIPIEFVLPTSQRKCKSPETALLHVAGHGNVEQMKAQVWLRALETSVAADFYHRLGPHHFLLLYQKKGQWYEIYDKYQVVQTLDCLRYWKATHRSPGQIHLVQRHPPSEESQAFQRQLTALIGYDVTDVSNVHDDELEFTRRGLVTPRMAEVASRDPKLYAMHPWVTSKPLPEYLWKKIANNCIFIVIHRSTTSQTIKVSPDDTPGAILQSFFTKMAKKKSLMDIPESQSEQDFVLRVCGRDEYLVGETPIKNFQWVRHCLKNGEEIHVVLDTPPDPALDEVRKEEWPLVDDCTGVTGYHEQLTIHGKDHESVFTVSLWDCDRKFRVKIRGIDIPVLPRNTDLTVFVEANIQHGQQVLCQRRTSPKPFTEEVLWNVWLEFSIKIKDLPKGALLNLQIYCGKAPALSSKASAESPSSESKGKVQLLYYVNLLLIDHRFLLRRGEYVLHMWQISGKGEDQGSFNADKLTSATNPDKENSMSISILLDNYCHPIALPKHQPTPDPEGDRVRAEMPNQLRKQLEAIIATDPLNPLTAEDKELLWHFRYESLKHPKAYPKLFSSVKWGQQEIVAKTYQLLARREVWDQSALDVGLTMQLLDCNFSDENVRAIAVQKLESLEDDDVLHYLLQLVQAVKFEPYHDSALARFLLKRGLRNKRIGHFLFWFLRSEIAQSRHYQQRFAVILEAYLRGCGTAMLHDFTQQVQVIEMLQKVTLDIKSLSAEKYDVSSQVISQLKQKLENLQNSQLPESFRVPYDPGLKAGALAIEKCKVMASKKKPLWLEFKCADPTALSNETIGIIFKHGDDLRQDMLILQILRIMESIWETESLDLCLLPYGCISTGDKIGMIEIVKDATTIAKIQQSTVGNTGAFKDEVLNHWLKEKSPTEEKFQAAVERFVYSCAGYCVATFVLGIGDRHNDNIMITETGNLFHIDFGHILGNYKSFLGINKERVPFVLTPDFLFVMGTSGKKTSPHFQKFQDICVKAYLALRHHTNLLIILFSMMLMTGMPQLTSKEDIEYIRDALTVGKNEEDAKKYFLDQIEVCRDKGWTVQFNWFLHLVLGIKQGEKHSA
Sequence of PI3Kα (P42336 whole entry): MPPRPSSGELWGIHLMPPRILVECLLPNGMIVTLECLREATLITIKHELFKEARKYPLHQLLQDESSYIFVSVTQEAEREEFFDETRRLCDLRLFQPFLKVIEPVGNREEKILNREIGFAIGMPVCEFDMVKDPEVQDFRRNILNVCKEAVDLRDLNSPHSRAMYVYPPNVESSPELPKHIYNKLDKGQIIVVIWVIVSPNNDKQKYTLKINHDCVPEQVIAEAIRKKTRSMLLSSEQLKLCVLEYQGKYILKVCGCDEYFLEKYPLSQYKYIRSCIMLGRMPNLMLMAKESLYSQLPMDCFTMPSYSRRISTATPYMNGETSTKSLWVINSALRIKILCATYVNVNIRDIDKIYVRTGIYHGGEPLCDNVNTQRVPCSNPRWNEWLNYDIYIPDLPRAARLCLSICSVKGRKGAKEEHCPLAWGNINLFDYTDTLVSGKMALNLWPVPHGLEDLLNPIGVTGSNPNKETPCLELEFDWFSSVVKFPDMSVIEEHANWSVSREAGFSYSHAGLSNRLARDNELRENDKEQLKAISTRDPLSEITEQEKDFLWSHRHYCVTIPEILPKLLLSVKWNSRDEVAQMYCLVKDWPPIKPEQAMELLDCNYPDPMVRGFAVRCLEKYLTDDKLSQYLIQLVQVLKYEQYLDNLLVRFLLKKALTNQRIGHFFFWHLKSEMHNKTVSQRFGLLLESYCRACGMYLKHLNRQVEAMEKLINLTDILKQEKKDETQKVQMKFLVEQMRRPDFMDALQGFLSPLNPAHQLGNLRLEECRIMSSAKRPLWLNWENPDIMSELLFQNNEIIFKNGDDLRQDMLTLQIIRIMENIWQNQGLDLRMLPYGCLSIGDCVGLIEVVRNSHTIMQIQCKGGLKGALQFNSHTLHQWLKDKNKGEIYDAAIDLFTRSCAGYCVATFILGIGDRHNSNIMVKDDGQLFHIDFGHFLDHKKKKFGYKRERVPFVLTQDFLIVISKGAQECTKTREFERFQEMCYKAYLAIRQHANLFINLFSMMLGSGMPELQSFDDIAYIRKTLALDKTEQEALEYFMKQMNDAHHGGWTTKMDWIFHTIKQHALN
Sequence of PI3Kα (P27986 whole entry partner): as the sequence (P27986 whole entry partner) above
Sequence of PI3Kβ (P42338 whole entry): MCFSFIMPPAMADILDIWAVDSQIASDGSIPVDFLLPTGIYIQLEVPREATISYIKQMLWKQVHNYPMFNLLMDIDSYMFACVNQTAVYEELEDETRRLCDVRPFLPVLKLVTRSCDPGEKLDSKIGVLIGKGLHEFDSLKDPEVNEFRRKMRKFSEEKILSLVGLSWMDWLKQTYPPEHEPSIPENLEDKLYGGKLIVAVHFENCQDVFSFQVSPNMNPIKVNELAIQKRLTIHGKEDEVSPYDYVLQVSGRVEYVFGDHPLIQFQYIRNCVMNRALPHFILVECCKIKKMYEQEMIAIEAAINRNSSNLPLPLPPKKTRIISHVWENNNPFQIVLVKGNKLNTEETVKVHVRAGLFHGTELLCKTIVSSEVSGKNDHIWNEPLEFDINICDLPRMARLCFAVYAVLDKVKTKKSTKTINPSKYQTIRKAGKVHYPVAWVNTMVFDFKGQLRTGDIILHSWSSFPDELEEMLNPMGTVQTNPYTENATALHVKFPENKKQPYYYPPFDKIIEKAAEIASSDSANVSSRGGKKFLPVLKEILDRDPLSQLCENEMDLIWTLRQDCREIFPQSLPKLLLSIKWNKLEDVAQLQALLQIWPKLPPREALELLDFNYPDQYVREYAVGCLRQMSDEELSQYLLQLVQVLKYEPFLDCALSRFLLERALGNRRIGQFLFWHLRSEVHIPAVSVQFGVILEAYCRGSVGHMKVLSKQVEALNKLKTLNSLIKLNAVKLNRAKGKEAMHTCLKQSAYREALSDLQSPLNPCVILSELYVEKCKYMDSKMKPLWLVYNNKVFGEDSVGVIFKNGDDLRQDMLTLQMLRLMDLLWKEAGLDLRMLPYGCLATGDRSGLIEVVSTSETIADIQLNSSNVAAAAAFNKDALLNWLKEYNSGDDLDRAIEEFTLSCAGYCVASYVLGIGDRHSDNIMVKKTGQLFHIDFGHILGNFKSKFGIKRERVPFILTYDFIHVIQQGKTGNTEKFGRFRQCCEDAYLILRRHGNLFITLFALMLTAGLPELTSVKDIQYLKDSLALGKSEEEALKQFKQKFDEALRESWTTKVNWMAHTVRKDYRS
Sequence of PI3Kβ (P27986 whole entry partner): as the sequence (P27986 whole entry partner) above

Row | Compound | β/δ selectivity (PI3Kβ) | IC50 (PI3Kδ) | α/δ selectivity (PI3Kα) | γ/δ selectivity (PI3Kγ) | IC50 (Raji cells)
1 | Cc1sc2c(-c3cccc4[nH]ccc34)nc(N3CCOCC3)nc2c1CN1CCN(C(=O)CO)CC1 [Compound 8] | 27 | 72 nM | 90 | 57 | –
2 | COc1ncc(-c2nc(N3CCOCC3)nc3c(CN4CCN(C)CC4)c(C)sc23)cc1NS(C)(=O)=O [Compound 65] | 94 | 17.5 nM | 174 | >571 | 15.4 nM
3 | COc1ncc(-c2nc(N3CCOCC3)nc3c(CN4CCN(C(=O)CO)CC4)c(C)sc23)cc1NS(C)(=O)=O [Compound 71] | – | 6.8 nM | 13 | – | 8.6 nM
4 | COc1ncc(-c2nc(N3CCOCC3)nc3c(CN4CCC(C(C)(C)OC)CC4)c(C)sc23)cc1NS(C)(=O)=O [Compound 78] | 18 | 7.7 nM | 302 | >1298 | 10.6 nM
5 | COc1ncc(-c2nc(N3CCOCC3)nc3c(CN4CCC(C(C)(C)O)CC4)c(C)sc23)cc1NS(=O)(=O)C1CC1 [Compound 79] | – | 9.4 nM | 582 | – | 14.5 nM
6 | COc1ncc(-c2nc(N3CCOCC3)nc3c(CN4CCC(C(C)(C)F)CC4)c(C)sc23)cc1NS(C)(=O)=O [Compound 85] | 69 | 8.6 nM | 401 | >1162 | 39.1 nM
7 | COc1ncc(-c2nc(N3CCOCC3)nc3c(CN4CCN(CC(F)(F)F)CC4)c(C)sc23)cc1NS(C)(=O)=O [Compound 87] | 45 | 12.5 nM | 204 | 498 | 41.6 nM
8 | COc1ncc(-c2nc(N3CCOCC3)nc3c(CN4CCN(C(C)(C)C)CC4)c(C)sc23)cc1NS(C)(=O)=O [Compound 89] | – | 2.6 nM | 48 | – | 1.3 nM
9 | COc1ncc(-c2nc(N3CCOCC3)nc3c(CN4CCC(N(C)C(C)C)CC4)c(C)sc23)cc1NS(C)(=O)=O [Compound 95] | 167 | 6.5 nM | 157 | 532 | 1.1 nM
10 | COc1ncc(-c2nc(N3CCOCC3)nc3c(CN4CCC(C)(C)CC4)c(C)sc23)cc1NS(C)(=O)=O [Compound 99] | 24 | 34 nM | 152 | 244 | –
11 | COc1ncc(-c2nc(N3CCOCC3)nc3c(CN4CCN(C(=O)CC#N)CC4)c(C)sc23)cc1NS(C)(=O)=O [Compound 100] | – | 17 nM | 17 | – | 5.7 nM
12 | COc1ncc(-c2nc(N3CCOCC3)nc3c(CN4CCC5(CC4)OCCO5)c(C)sc23)cc1NS(C)(=O)=O [Compound 104] | 19 | 4.3 nM | 159 | 377 | –
13 | COc1ncc(-c2nc(N3CCOCC3)nc3c(CN4CCC(O)CC4)c(C)sc23)cc1NS(C)(=O)=O [Compound 108] | 6 | 13 nM | 78 | 262 | –
14 | COc1ncc(-c2nc(N3CCOCC3)nc3c(CN4CCN(C(C)(C)C)CC4)c(C)sc23)cc1NS(=O)(=O)C1CC1 [Compound 109] | 723 | 3.9 nM | 251 | 1296 | –
15 | CCN(CC)C1CCN(Cc2c(C)sc3c(-c4cnc(OC)c(NS(C)(=O)=O)c4)nc(N4CCOCC4)nc23)CC1 [Compound 110] | 275 | 4.1 nM | 203 | 1112 | 3.3 nM
16 | COc1ncc(-c2nc(N3CCOCC3)nc3c(CN4CCC(N5CCCC5)CC4)c(C)sc23)cc1NS(C)(=O)=O [Compound 112] | 126 | 7.6 nM | 108 | 611 | 1.1 nM
17 | COc1ncc(-c2nc(N3CCOCC3)nc3c(CN4CC(N(C)C)C4)c(C)sc23)cc1NS(C)(=O)=O [Compound 121] | – | 16 nM | 192 | – | 33.7 nM
18 | COc1ncc(-c2nc(N3CCOCC3)nc3c(CN4CCC(N5CCC[C@H]5CO)CC4)c(C)sc23)cc1NS(C)(=O)=O [Compound 126] | – | 4.7 nM | 170 | – | 3.9 nM
19 | COc1ncc(-c2nc(N3CCOCC3)nc3c(CN4CCC(N5CCCCC5)CC4)c(C)sc23)cc1NS(C)(=O)=O [Compound 147] | 140 | 4.6 nM | 225 | 567 | 3.3 nM

Continued by falling IC50 (PI3Kδ), values first:

Row | β/δ selectivity (PI3Kβ) | IC50 (PI3Kδ) | α/δ selectivity (PI3Kα) | γ/δ selectivity (PI3Kγ) | IC50 (Raji cells) | Compound
20 | – | 47 nM | >213 | – | 30.4 nM | COc1ncc(-c2nc(N3CCOCC3)nc3c(CN4CCN(CC(F)(F)F)CC4)c(C)sc23)cc1NS(=O)(=O)C1CC1 [Compound 84]
21 | >282 | 35.4 nM | >282 | >282 | – | CC(C)(O)C1CCN(Cc2csc3c(-c4cccc5[nH]ccc45)nc(N4CCOCC4)nc23)CC1 [Compound 4]
22 | 72 | 25.5 nM | 129 | >392 | – | COc1ncc(-c2nc(N3CCOCC3)nc3c(CN4CCC5(CC4)CNC5)c(C)sc23)cc1NS(C)(=O)=O [Compound 106]
23 | – | 24 nM | 374 | – | 43 nM | COc1ncc(-c2nc(N3CCOCC3)nc3c(CN4CCC(OC)CC4)c(C)sc23)cc1NS(=O)(=O)C1CC1 [Compound 81]
24 | – | 15 nM | 143 | – | 76.8 nM | COc1ncc(-c2nc(N3CCOCC3)nc3c(CN4CCN(C(=O)C(F)(F)F)CC4)c(C)sc23)cc1NS(=O)(=O)C1CC1 [Compound 82]
25 | 25 | 12 nM | 136 | 402 | – | COc1ncc(-c2nc(N3CCOCC3)nc3c(CN4CCCCC4)c(C)sc23)cc1NS(C)(=O)=O [Compound 86]
26 | 29 | 12 nM | 390 | 482 | 32.6 nM | COc1ncc(-c2nc(N3CCOCC3)nc3c(CN4CCC(C)CC4)c(C)sc23)cc1NS(C)(=O)=O [Compound 101]
27 | 24 | 11.9 nM | 257 | >840 | 6.7 nM | COc1ncc(-c2nc(N3CCOCC3)nc3c(CN4CCC(OC)CC4)c(C)sc23)cc1NS(C)(=O)=O [Compound 83]
28 | 16 | 9.3 nM | 146 | 200 | – | COc1ncc(-c2nc(N3CCOCC3)nc3c(CN4CCCC4)c(C)sc23)cc1NS(C)(=O)=O [Compound 102]
29 | – | 8.4 nM | 176 | – | 9.3 nM | CCOC1CCN(Cc2c(C)sc3c(-c4cnc(OC)c(NS(C)(=O)=O)c4)nc(N4CCOCC4)nc23)CC1 [Compound 103]
30 | 73 | 5.8 nM | 548 | 1202 | 6.1 nM | COc1ncc(-c2nc(N3CCOCC3)nc3c(CN4CCC(C(C)C)CC4)c(C)sc23)cc1NS(C)(=O)=O [Compound 88]
31 | – | 5.8 nM | 38 | – | 1.5 nM | COc1ncc(-c2nc(N3CCOCC3)nc3c(CN4CCC(N5CCC[C@@H]5C)CC4)c(C)sc23)cc1NS(C)(=O)=O [Compound 127]
32 | – | 4.9 nM | 69 | – | 31.2 nM | COc1ncc(-c2nc(N3CCOCC3)nc3c(CN4CCN(C(=O)C(F)(F)F)CC4)c(C)sc23)cc1NS(C)(=O)=O [Compound 90]
33 | – | 3.2 nM | 60 | – | 3.4 nM | COc1ncc(-c2nc(N3CCOCC3)nc3c(CN4CCN(C(C)C)CC4)c(C)sc23)cc1NS(C)(=O)=O [Compound 91]
